The source made the active and inactive calls. No cut-off for these calls is given here.
Experiments:
[1] = Systemic clearance in mouse at 5 mg/kg, iv; assay type: ADME, organism-based; settings: in vivo
[2] = tested on: Rattus norvegicus; test: Antidiabetic activity in Sprague-Dawley rat assessed as decrease in plasma glucose AUC (0 to 120 mins) administered 1 hr prior to U13C6-glucose challenge by OGTT; assay type: functional, organism-based
[3] = Terminal half life in mouse at 20 mg/kg administered via oral gavage; assay type: ADME, organism-based; settings: in vivo, read-out: beta t1/2 (converted)
[4] = AUC (infinity) in rat at 10 mg/kg administered via oral gavage; assay type: ADME, organism-based; parameters: dose 10 mg/kg, route oral, time infinity; settings: in vivo
[5] = Terminal half life in rat at 10 mg/kg administered via oral gavage; assay type: ADME, organism-based; settings: in vivo, read-out: beta t1/2 (converted)
[6] = Systemic clearance in rat at 2 mg/kg, iv; assay type: ADME, organism-based; settings: in vivo
[7] = Terminal half life in mouse at 5 mg/kg, iv; assay type: ADME, organism-based; settings: in vivo, read-out: beta t1/2 (converted)
[8] = tested on: Rattus norvegicus; test: Antidiabetic activity in Sprague-Dawley rat assessed as increase in urinary glucose excrection administered 1 hr prior to U13C6-glucose challenge measured up to 4 hrs by OGTT; assay type: functional, organism-based
[9] = AUC (infinity) in mouse at 5 mg/kg, iv; assay type: ADME, organism-based; parameters: dose 5 mg/kg, time infinity, route intravenous; settings: in vivo
[10] = Cmax in rat at 2 mg/kg, iv; assay type: ADME, organism-based; parameters: dose 2 mg/kg, route intravenous; settings: in vivo
[11] = Cmax in mouse at 5 mg/kg, iv; assay type: ADME, organism-based; parameters: dose 5 mg/kg, route intravenous; settings: in vivo
[12] = Oral bioavailability in rat at 10 mg/kg; assay type: ADME, organism-based; settings: in vivo
[13] = Terminal half life in rat at 2 mg/kg, iv; assay type: ADME, organism-based; settings: in vivo, read-out: beta t1/2 (converted)
[14] = AUC (infinity) in rat at 2 mg/kg, iv; assay type: ADME, organism-based; parameters: dose 2 mg/kg, time infinity, route intravenous; settings: in vivo
[15] = AUC (infinity) in mouse at 20 mg/kg administered via oral gavage; assay type: ADME, organism-based; parameters: dose 20 mg/kg, route oral, time infinity; settings: in vivo
[16] = Cmax in mouse at 20 mg/kg administered via oral gavage; assay type: ADME, organism-based; parameters: dose 20 mg/kg, route oral; settings: in vivo
[17] = Volume of distribution at steady state in mouse at 5 mg/kg, iv; assay type: ADME, organism-based; settings: in vivo, read-out: Vdss
[18] = Volume of distribution at steady state in rat at 2 mg/kg, iv; assay type: ADME, organism-based; settings: in vivo, read-out: Vdss
[19] = Oral bioavailability in mouse at 20 mg/kg; assay type: ADME, organism-based; settings: in vivo
[20] = Cmax in rat at 10 mg/kg administered via oral gavage; assay type: ADME, organism-based; parameters: dose 10 mg/kg, route oral; settings: in vivo
[21] = molecular target: T1, Sodium/glucose cotransporter 1 (Homo sapiens) (UniProt P13866); test: Inhibition of human small intestinal SGLT1 expressed in CHOK1 cells assessed as decrease in [14C]-AMG uptake at 300 nM preincubated for 10 mins followed by [14C]-AMG addition and measured after 2 hrs by TopCount method relative to control; assay type: cell-based
T1 sequence (whole entry): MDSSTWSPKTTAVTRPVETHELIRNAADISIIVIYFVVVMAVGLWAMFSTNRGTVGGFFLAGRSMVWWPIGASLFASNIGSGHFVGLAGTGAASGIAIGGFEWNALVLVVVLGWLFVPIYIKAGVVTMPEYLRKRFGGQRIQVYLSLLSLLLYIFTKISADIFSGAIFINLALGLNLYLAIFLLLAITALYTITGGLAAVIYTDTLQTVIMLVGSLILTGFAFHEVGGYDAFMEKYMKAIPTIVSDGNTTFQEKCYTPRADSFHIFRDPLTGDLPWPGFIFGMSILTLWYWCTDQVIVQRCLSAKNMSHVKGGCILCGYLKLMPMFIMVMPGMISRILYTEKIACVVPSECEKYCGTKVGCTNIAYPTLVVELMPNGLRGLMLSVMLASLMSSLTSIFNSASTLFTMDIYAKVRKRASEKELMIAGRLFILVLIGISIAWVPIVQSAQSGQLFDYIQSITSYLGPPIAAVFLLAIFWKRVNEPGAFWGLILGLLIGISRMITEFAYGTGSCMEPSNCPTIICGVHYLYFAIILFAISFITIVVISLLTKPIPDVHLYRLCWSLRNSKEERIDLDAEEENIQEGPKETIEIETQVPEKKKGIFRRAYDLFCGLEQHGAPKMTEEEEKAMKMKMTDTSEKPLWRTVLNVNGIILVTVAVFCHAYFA

[22] = molecular target: T2, Sodium/glucose cotransporter 2 (Homo sapiens) (UniProt P31639); test: Inhibition of human kidney SGLT2 expressed in CHOK1 cells assessed as decrease in [14C]-AMG uptake at 30 nM preincubated for 10 mins followed by [14C]-AMG addition and measured after 2 hrs by TopCount method relative to control; assay type: cell-based
T2 sequence (whole entry): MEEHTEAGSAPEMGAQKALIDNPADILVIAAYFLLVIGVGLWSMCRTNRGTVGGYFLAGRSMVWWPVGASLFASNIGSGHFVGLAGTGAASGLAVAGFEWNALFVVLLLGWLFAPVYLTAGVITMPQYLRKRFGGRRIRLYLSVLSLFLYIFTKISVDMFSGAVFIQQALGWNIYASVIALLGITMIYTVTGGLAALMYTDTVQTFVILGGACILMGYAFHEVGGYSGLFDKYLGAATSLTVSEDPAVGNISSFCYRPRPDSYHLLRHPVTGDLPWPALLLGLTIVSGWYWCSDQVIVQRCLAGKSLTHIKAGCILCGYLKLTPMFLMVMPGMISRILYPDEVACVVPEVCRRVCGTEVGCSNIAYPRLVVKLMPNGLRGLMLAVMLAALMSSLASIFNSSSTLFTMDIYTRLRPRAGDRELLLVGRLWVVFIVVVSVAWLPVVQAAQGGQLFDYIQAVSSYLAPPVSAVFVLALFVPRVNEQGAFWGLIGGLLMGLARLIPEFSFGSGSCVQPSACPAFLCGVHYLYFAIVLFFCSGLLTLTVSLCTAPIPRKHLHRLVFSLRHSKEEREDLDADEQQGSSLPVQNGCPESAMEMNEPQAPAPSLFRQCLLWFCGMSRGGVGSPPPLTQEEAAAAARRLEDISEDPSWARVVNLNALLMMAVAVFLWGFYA

[23] = Terminal half life in monkey at 2 mg/kg, iv; assay type: ADME, organism-based, Macaca mulatta; settings: rhesus monkey, in vivo, read-out: beta t1/2 (converted)
[24] = Volume of distribution at steady state in dog at 2 mg/kg, iv; assay type: ADME, organism-based, Canis lupus familiaris; settings: in vivo, read-out: Vdss
[25] = Terminal half life in dog at 2 mg/kg, iv; assay type: ADME, organism-based, Canis lupus familiaris; settings: in vivo, read-out: beta t1/2 (converted)
[26] = Terminal half life in dog at 10 mg/kg administered via oral gavage; assay type: ADME, organism-based, Canis lupus familiaris; settings: in vivo, read-out: beta t1/2 (converted)
[27] = Cmax in dog at 10 mg/kg administered via oral gavage; assay type: ADME, organism-based, Canis lupus familiaris; parameters: dose 10 mg/kg, route oral; settings: in vivo
[28] = tested on: Rattus norvegicus; test: Antidiabetic activity in Sprague-Dawley rat assessed as decrease in postprandial blood glucose level administered 1 hr prior to glucose challenge measured up to 120 mins by OGTT; assay type: functional, organism-based
[29] = Volume of distribution at steady state in monkey at 2 mg/kg, iv; assay type: ADME, organism-based, Macaca mulatta; settings: rhesus monkey, in vivo, read-out: Vdss
[30] = Systemic clearance in dog at 2 mg/kg, iv; assay type: ADME, organism-based, Canis lupus familiaris; settings: in vivo
[31] = Oral bioavailability in dog at 10 mg/kg; assay type: ADME, organism-based, Canis lupus familiaris; settings: in vivo
[32] = Oral bioavailability in monkey at 10 mg/kg; assay type: ADME, organism-based, Macaca mulatta; settings: rhesus monkey, in vivo
[33] = Cmax in monkey at 2 mg/kg, iv; assay type: ADME, organism-based, Macaca mulatta; parameters: dose 2 mg/kg, route intravenous; settings: rhesus monkey, in vivo
[34] = Terminal half life in monkey at 10 mg/kg administered via oral gavage; assay type: ADME, organism-based, Macaca mulatta; settings: rhesus monkey, in vivo, read-out: beta t1/2 (converted)
[35] = Cmax in monkey at 10 mg/kg administered via oral gavage; assay type: ADME, organism-based, Macaca mulatta; parameters: dose 10 mg/kg, route oral; settings: rhesus monkey, in vivo
[36] = Cmax in dog at 2 mg/kg, iv; assay type: ADME, organism-based, Canis lupus familiaris; parameters: dose 2 mg/kg, route intravenous; settings: in vivo
[37] = AUC (infinity) in dog at 2 mg/kg, iv; assay type: ADME, organism-based, Canis lupus familiaris; parameters: dose 2 mg/kg, time infinity, route intravenous; settings: in vivo
[38] = Systemic clearance in monkey at 2 mg/kg, iv; assay type: ADME, organism-based, Macaca mulatta; settings: rhesus monkey, in vivo
[39] = AUC (infinity) in dog at 10 mg/kg administered via oral gavage; assay type: ADME, organism-based, Canis lupus familiaris; parameters: dose 10 mg/kg, route oral, time infinity; settings: in vivo
[40] = AUC (infinity) in monkey at 2 mg/kg, iv; assay type: ADME, organism-based, Macaca mulatta; parameters: dose 2 mg/kg, route intravenous, time infinity; settings: rhesus monkey, in vivo
[41] = tested on: Rattus norvegicus; test: Antihyperglycemic activity in diabetic ZDF rat assessed as decrease in fed blood glucose levels at 10 mg/kg measured up to 24 hrs; assay type: functional, organism-based
[42] = AUC (infinity) in monkey at 10 mg/kg administered via oral gavage; assay type: ADME, organism-based, Macaca mulatta; parameters: dose 10 mg/kg, time infinity, route oral; settings: rhesus monkey, in vivo

clearance [1] [mL/min/kg] | half-life [3] [h] | AUC(0-inf) [4] [ng·h/mL] | half-life [5] [h] | clearance [6] [mL/min/kg] | half-life [7] [h] | AUC(0-inf) [9] [ng·h/mL] | Cmax [10] [ng/mL] | Cmax [11] [ng/mL] | bioavailability [12] [%] | half-life [13] [h] | AUC(0-inf) [14] [ng·h/mL] | AUC(0-inf) [15] [ng·h/mL] | Cmax [16] [ng/mL] | Vd [17] [L/kg] | Vd [18] [L/kg] | bioavailability [19] [%] | Cmax [20] [ng/mL] | inhibition [21] [%] | inhibition [22] [%] | Compound | also measured
18.3 | 2.68 | 1790 | 2.22 | 47.8 | 1.25 | 4560 | 2110 | 8200 | 49 | 1.27 | 697 | 11500 | 4760 | 1.06 | 2.18 | 62.8 | 717 | – | – | Cc1cc(O)c([C@@H]2O[C@H](CO)[C@@H](O)[C@H](O)[C@H]2O)cc1Cc1ccc2c(c1)CC2 | Activity [2]: Dose-dependent effect; Activity [8]: Dose-dependent effect
– | – | – | – | – | – | – | – | – | – | – | – | – | – | – | – | – | – | 5 | 23 | OC[C@H]1O[C@@H](c2cccc(Cc3ccc4c(c3)CC4)c2)[C@H](O)[C@@H](O)[C@@H]1O | –
13 | 3.29 | 2650 | 2.48 | 48.3 | 2.42 | 6390 | 1110 | 5870 | 78 | 2.17 | 697 | 25500 | 5680 | 2.19 | 4.01 | 99 | 634 | – | – | OC[C@H]1O[C@@H](c2ccc(Cl)c(Cc3ccc4c(c3)CC4)c2)[C@H](O)[C@@H](O)[C@@H]1O | half-life [23]: 4.71 h; Vd [24]: 0.4 L/kg; half-life [25]: 7.93 h; half-life [26]: 12.8 h; Cmax [27]: 20100 ng/mL; Activity [28]: Active; Vd [29]: 0.91 L/kg; clearance [30]: 0.68 mL/min/kg; bioavailability [31]: 107%; bioavailability [32]: 88%; Cmax [33]: 9110 ng/mL; half-life [34]: 4.45 h; Cmax [35]: 7180 ng/mL; Cmax [36]: 9600 ng/mL; AUC(0-inf) [37]: 50800 ng·h/mL; clearance [38]: 3.74 mL/min/kg; AUC(0-inf) [39]: 332000 ng·h/mL; AUC(0-inf) [40]: 9210 ng·h/mL; Activity [41]: Active; AUC(0-inf) [42]: 40500 ng·h/mL
– | – | – | – | – | – | – | – | – | – | – | – | – | – | – | – | – | – | 0 | 43 | N#Cc1ccc([C@@H]2O[C@H](CO)[C@@H](O)[C@H](O)[C@H]2O)cc1Cc1ccc2c(c1)CC2 | –
– | – | – | – | – | – | – | – | – | – | – | – | – | – | – | – | – | – | 67 | 35 | CN(C)c1ccc([C@@H]2O[C@H](CO)[C@@H](O)[C@H](O)[C@H]2O)cc1Cc1ccc2c(c1)CC2 | –
– | – | – | – | – | – | – | – | – | – | – | – | – | – | – | – | – | – | 67 | 31 | COc1cc(C2CC2)c(Cc2ccc3c(c2)CC3)cc1[C@@H]1O[C@H](CO)[C@@H](O)[C@H](O)[C@H]1O | –

Source: ChEMBL document CHEMBL4219126, “Synthesis and biological evaluation of benzocyclobutane-C-glycosides as potent and orally active SGLT1/SGLT2 dual inhibitors” (Bioorg Med Chem Lett, 2018)
